Experiments:
p300 = biological target: T1, p300 (Homo sapiens, UniProt P41182+Q09472); assay: p300 immunoprecipitation-mass spectrometry in SUDHL5; assay type: cell-based; settings: SUDHL5, 1 nM, 2 h, vs DMSO
T1 construct: endogenous in cells; host or cells: SUDHL5
Protocol: 50 million FLAG-BCL6 knock-in SUDHL5 cells were treated compound or DMSO (0.1%) at indicated doses for 2 hours. Cells were lysed in NE10 buffer (20 mM HEPES (pH 7.5), 10 mM KCl, 1 mM MgCl2, 0.1% Triton X-100 (v/v), protease inhibitors (Roche), 15 mM ß-mercaptoethanol), dounced 15 times and pelleted 5 min at 500 g. Nuclei were washed in NE10 buffer and then digested with 250 units benzonase (Millipore) for 30 min rotating at 25°C. Nuclei were resuspended in NE150 buffer (NE10 supplemented with 150mM NaCl) and incubated for 20 min. Lysates were pelleted at 16,000 g for 20 min at 4°C and supernatants were immunoprecipitated by incubating with 2.5 μg FLAG M2 antibody (F1804, Millipore-Sigma) or 2.5 μg p300 (A300–358A, Bethyl Laboratories) antibody with Dynabeads Protein G (Thermo Fisher) overnight at 4°C. The IP fraction was recovered by magnetic separation followed by three washes with NE10 buffer containing 150mM–300mM NaCl but without Triton-X. For mass spectrometry analysis, the IP was then eluted from the beads with Ammonium Hydroxide, pH 11–12; 3% v/v. […]
The reconstituted desalted peptides were then analyzed using a nanoElute 2 UHPLC (Bruker Daltonics, Bremen, Germany) coupled to a timsTOF HT (Bruker Daltonics, Bremen, Germany) via a CaptiveSpray nano-electrospray source. […]

c-MYC protein = assay: Western blot of c-MYC protein in SUDHL5; assay type: cell-based, human
Protocol: Cells were plated at 1M/mL and treated with drug at indicated timepoints and doses. Cells were harvested on ice in RIPA buffer (50mM Tris-HCl pH 8, 150mM NaCl, 1% NP-40, 0.1% DOC, 1% SDS, protease inhibitor cocktail (~20 mg/ml pepstatin, aprotinin, and leupeptin), 1mM DTT) and 1:200 benzonase (Sigma E1014) was added and incubated for 20 mins. After 10 min centrifugation at 14,000g and 4 °C, the supernatant was collected and protein concentration was measured by Bradford. SDS-PAGE analysis was carried out in either 4–12% or 12% Bis-Tris PAGE gels (Thermo NW04120 and NW04127). Antibodies used for immunoblots were: BCL6 (1:1000 v:v, Cell Signaling D65C10), p300 (1:250, Santa Cruz F-4 sc-48343), CBP (1:1000, Cell Signaling D6C5), c-MYC (1:1000, Cell Signaling D84C12), Caspase-3 (1:1000, Cell Signaling 9662), GAPDH (1:2000, Santa Cruz 6C5 sc-32233), BBC3/PUMA (1:1000, Cell Signaling E2P7G), FOXO3 (1:1000, Cell Signaling 75D8), H3K27ac (1:1000, abcam ab4729), H2BK20ac (1:1000, Cell Signaling D709W), H3 (1:10,000, Cell Signaling 1B1B2), H2B (1:10,000, Cell Signaling D2H6), p27/CDKN1B (1:1000, Cell Signaling D69C12), and TP53 (1:1000, Santa Cruz DO-1). ImageStudio (Licor) was used for blot imaging and quantification.

T1 sequence (Q09472 2-2414 limits assumed, other chains not shown): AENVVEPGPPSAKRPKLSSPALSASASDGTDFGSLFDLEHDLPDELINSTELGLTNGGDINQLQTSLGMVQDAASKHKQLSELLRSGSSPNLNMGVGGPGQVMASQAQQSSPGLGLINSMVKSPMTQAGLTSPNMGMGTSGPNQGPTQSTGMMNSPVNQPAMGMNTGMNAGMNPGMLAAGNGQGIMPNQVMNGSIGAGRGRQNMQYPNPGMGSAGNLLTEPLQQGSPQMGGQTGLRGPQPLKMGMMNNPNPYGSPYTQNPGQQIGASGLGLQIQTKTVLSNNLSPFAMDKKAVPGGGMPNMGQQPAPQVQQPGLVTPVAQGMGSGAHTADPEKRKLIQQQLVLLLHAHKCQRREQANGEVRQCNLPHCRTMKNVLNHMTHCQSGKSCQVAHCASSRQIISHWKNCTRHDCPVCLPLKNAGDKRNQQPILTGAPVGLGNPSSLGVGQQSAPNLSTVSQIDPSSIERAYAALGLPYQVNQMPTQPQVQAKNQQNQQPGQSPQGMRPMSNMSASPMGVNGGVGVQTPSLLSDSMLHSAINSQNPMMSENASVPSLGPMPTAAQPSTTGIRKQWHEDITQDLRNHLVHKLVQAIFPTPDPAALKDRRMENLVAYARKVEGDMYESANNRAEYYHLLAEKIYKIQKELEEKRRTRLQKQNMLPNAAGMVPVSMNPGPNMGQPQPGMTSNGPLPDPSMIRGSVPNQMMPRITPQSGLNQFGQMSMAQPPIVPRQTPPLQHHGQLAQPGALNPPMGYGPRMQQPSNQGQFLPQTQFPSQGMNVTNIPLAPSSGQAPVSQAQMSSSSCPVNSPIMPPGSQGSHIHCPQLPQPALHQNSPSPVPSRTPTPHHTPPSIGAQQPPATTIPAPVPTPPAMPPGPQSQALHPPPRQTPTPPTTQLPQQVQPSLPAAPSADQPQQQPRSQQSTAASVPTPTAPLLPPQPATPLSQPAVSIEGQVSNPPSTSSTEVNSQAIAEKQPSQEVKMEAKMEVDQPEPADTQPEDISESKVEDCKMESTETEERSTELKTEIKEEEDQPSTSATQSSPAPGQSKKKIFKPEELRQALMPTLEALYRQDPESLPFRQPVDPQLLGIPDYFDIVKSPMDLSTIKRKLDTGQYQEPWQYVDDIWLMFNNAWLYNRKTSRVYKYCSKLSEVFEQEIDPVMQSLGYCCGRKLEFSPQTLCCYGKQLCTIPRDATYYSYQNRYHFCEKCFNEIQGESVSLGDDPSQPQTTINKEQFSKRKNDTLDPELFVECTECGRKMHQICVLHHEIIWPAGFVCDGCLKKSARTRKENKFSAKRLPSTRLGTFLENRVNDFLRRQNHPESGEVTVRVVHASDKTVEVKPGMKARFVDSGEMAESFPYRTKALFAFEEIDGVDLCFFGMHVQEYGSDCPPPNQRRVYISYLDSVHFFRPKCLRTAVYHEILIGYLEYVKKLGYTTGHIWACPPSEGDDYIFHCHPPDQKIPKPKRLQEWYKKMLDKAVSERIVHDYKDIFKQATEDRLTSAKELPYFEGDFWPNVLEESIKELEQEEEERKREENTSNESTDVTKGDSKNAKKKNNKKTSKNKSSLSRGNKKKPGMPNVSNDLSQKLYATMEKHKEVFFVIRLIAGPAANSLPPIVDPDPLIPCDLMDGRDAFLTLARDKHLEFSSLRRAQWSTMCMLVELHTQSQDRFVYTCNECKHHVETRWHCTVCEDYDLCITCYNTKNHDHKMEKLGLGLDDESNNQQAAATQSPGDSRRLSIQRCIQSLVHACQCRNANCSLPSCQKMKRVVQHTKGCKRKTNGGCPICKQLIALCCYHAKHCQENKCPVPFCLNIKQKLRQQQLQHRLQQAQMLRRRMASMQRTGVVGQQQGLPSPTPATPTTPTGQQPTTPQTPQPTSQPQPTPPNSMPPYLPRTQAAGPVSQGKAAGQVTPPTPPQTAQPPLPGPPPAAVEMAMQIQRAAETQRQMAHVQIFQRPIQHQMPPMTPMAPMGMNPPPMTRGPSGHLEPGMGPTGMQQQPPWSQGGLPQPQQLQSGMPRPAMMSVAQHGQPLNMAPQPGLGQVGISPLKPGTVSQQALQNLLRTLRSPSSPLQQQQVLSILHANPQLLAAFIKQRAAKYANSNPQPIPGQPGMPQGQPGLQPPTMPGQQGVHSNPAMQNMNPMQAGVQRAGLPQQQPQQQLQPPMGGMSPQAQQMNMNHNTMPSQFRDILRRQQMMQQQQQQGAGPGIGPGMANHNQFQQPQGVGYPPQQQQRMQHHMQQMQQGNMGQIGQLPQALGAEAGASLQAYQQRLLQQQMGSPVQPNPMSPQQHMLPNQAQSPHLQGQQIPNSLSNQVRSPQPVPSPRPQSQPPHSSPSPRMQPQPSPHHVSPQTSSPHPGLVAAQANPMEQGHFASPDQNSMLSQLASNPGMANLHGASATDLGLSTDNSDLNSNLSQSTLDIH

CNC(=O)COc1cc2cc(Nc3nc(N4CCC(C(=O)N5CCN(CCC(=O)N6CCC(n7nc(N8CCCc9cc(-c%10cnn(C)c%10)c(C(F)F)cc98)c8c7CCN(C(=O)NC)C8)CC6)CC5)CC4)ncc3Cl)cc(OC)c2n(C)c1=O [TCIP3]
enrichment of BCL6 in p300 IP, log2(fold change) (p300): 4.0
t1/2 of c-MYC protein decrease (c-MYC protein; SUDHL5, 1 nM): 2.5 h
IC50 (c-MYC protein; SUDHL5, 4 hours, read-out: IC50 of c-MYC protein repression): ~0.8 nM

Reference: article doi:10.1101/2025.03.14.643404, “A Bivalent Molecular Glue Linking Lysine Acetyltransferases to Oncogene-induced Cell Death” (bioRxiv, 2025)
